The NIST ThermoML archive (doi:10.1021/je900672g)

Test: isobaric coefficient of expansion
Conditions: Liquid, DSC

N#Cc1ccccc1 [benzonitrile]
isobaric coefficient of expansion
Conditions	5000 kPa	10000 kPa	15000 kPa	20000 kPa	25000 kPa	30000 kPa	35000 kPa	40000 kPa	45000 kPa	50000 kPa
278.15 K	0.000841 1/K	0.000831 1/K	0.000829 1/K	0.000812 1/K	0.000795 1/K	0.000791 1/K	0.00078 1/K	0.000772 1/K	0.00076 1/K	0.000752 1/K
288.15 K	0.000845 1/K	0.000832 1/K	0.000819 1/K	0.000811 1/K	0.000799 1/K	0.000789 1/K	0.000772 1/K	0.000771 1/K	0.000759 1/K	0.000754 1/K
298.15 K	0.000849 1/K	0.000832 1/K	0.000825 1/K	0.000809 1/K	0.000798 1/K	0.000788 1/K	0.000775 1/K	0.000773 1/K	0.000759 1/K	0.000749 1/K
308.15 K	0.000852 1/K	0.000842 1/K	0.000827 1/K	0.000814 1/K	0.000799 1/K	0.000788 1/K	0.000773 1/K	0.000765 1/K	0.000755 1/K	0.000743 1/K
318.15 K	0.000857 1/K	0.00084 1/K	0.000826 1/K	0.000811 1/K	0.000798 1/K	0.000789 1/K	0.000773 1/K	0.000764 1/K	0.000754 1/K	0.000743 1/K
328.15 K	0.000853 1/K	0.000837 1/K	0.000819 1/K	0.000808 1/K	0.000794 1/K	0.000782 1/K	0.000772 1/K	0.00076 1/K	0.000751 1/K	0.000736 1/K
338.15 K	0.000863 1/K	0.000843 1/K	0.000826 1/K	0.000813 1/K	0.000799 1/K	0.000786 1/K	0.000776 1/K	0.000762 1/K	0.000747 1/K	0.000738 1/K
348.15 K	0.00087 1/K	0.00085 1/K	0.000832 1/K	0.000818 1/K	0.000802 1/K	0.000788 1/K	0.000774 1/K	0.000761 1/K	0.000749 1/K	0.000737 1/K
